The subject of data set [1] is human prostate cancer cell lines (LNCaP, PC3 and DU145). Put plainly: 3H-thymidine incorporation, prostate cancer cells. The data set is classed as cell-based. The note with it: 0.06 or 6 μM, 24h then 48h pulse; in words (Fig 4). The procedure:
For assays involving 14mer peptides only human prostate cancer cell lines (LNCaP, PC3 and DU145) were obtained from ATCC (American Tissue Type Culture Collection, Rockville, MD, USA). Cells were cultured in DMEM (Dulbecco’s […], Life Technologies, Grand Island, NY, USA) supplemented with 10% fetal calf serum (FCS, heat-inactivated), 100 IU/ml penicillin and 10 μg/ml streptomycin (all CSL, Parkville, Victoria, Australia) in 75 cm^2 culture flasks (Becton Dickinson, Franklin Lakes, NJ, USA) and were maintained at 37°C in a humidified incubator with […]. Incorporation of ^3H-thymidine was used to assess DNA synthesis. Cells were seeded overnight at 0.5 x 10^5 cells per well in 24-well tissue culture plates in DMEM culture medium (supplemented as above with 10% FCS, penicillin and streptomycin). Cell growth was synchronised by culturing cells in DMEM containing 0.1% bovine serum albumin (supplemented with penicillin and streptomycin, but without FCS) for 24h. […]
Fig 4 EPL001 and EPL030 effects on human prostate cancer cell growth in vitro. Cell proliferation was determined by ^3H-thymidine incorporation. […]
Background: Uptake of a labelled nucleoside into DNA is a usual measure of proliferation.

The test system of data set [2] is rat bone marrow cells. Nature of the data set: Bone marrow cell assay, time-lapse cell counts over 24h. It counts as cell-based. Particulars: EPL001, EPL030 at 6μM, EPL120 at 5μM final concentration, in words (Fig 6). As to the method:
The method has been described previously at length. Bone marrow cells, consisting of various cell types including mesenchymal stem cells and fibroblasts, were cultured from adult male rats (Rattus norvegicus, SD strain). These cells were passaged from a growing primary stock in a T75 tissue culture flask (Sarstedt) into a 48 well tissue culture plate (IWAKI), with a cell density of 1 x 10^5/ml. The cell culture media, henceforth referred to as ‘supplemented a-MEMS,’ comprised α-MEMS media supplemented with 10% FCS and 1% penicillin/streptomycin (all Life Technologies, Carlsbad, CA, US). On the day of peptide addition to the cells, the supplemented α-MEMS was gently removed and fresh supplemented α-MEMS added, with 10% test material by volume to achieve micromolar concentrations, untreated controls receiving just fresh supplemented α-MEMS. (For dose levels see legends in respective result figures) All samples were filter sterilised using a Millex-GV […] syringe filter unit (Merck, Kenilworth, NJ, USA). The cells were imaged for 24 h using an incubated Zeiss Axiovert 135M microscope with a Prior Proscan II motorised stage, at 37 °C with a 5% CO2 in air feed. Each well of the 48-well tissue culture plate was then imaged for 24h every 5 min using Metamorph software (MDS Analytical Technologies, Wokingham, UK), with each well having four fields of view. The viability and cell numbers were reviewed by analysing the images captured over the 24h period and cell counts were taken at selected time points using the Metamorph software.
Fig 6 Bone marrow cells in culture exposed to long peptides. Cells were counted over 24h after exposure to the 14mer peptide EPL001 or its scrambled-sequence control EPL030 at 6μM final concentration or to the 20mer EPL120 at 5μM final concentration, compared to peptide-untreated controls.
Fig 7 Bone marrow cells in culture exposed to hexapeptides. Cells were counted over 24h after exposure to either EPL016 (= MKPLTG, the ‘Front 6’ of the 14mer EPL001) or EPL036 (= IEPVFT, the ‘Back 6’ of EPL030, the scrambled-sequence control of EPL001) at 1μM final concentration, compared to peptide-untreated controls.

Data set [3] is described as follows: Toxicity study in immunodeficient nude mice. The data set is classed as in vivo, female Balb/c immunodeficient nude mice. Particulars: for Toxicity: in words; for Maximum weight loss compared to Day 0: groups of 2 mice. As to the method: For toxicity studies female Balb/c immunodeficient nude mice were used (B & K Universal, Hull, UK), aged 6–8 weeks old. They were housed in cages in isolation cabinets in an air-conditioned room with regular alternating cycles of light and darkness and received Teklad 2018 (Envigo) diet and water ad libitum. EPL001 and EPL030 in PBS at pH7.4 were administered to groups of 2 mice intraperitoneally (i.p.) daily on Days 0–4 at 500 mg/kg/dose and then 1000 mg/kg/dose. Following treatment, body weight was measured on a regular basis, and behaviour and general appearance monitored visually to assess for deleterious effects (e.g. dehydration, impaired mobility, hunched posture, low body temperature, ulceration and significant body weight loss), with any effects during the study recorded. […] If no deleterious effects were seen after at least 16 days of study, then the animals were sacrificed, with the dose considered non-toxic.
For toxicity studies female Balb/c immunodeficient nude mice were used (B & K Universal, Hull, UK), aged 6-8 weeks old. They were housed in cages in isolation cabinets in an air-conditioned room with regular alternating cycles of light and darkness and received Teklad 2018 (Envigo) diet and water ad libitum. EPL001 and EPL030 in PBS at pH7.4 were administered to groups of 2 mice intraperitoneally (i.p.) daily on days 0-4 at 500mg/kg/dose and then 1000mg/kg/dose. Following treatment, body weight was measured on a regular basis, and behaviour and general appearance monitored visually to assess for deleterious effects (e.g. dehydration, impaired mobility, hunched posture, low body temperature, ulceration and significant body weight loss), with any effects during the study recorded.

In data set [4] the test system is MCF 7 human breast cancer cells. The note with it: in words; EPL120 over 72h, dose range 0.04 nM– 4 μM; cited from earlier work.
Data set [5] concerns hMSCs. Set-up: method as in earlier work. Particulars: EPL001 0.15µM or EPL140 15µM, three days; cited from earlier work.
The mark [6] stands for this setting: 500mg/kg/day ip Days 0 to 4, on Day 2.
Setting [7] is: 1000mg/kg/day ip Days 0 to 4, EPL030 on Day 3, EPL001 on Day 1.

Results on two sequences are retold here after paper PMC9714824, “Hexapeptides from mammalian inhibitory hormone hunt activate and inactivate nematode reproduction” (PLOS ONE, 2022).

For “KLKMNGKNIEPVFT [EPL030, …, scrambled EPL001 control]”, in data set [1], the “Cell proliferation by 3H-thymidine incorporation” value was “antiproliferative”. Further, in data set [2], the “Effect on bone marrow cells in culture” value is listed as “pro-apoptotic”. Also, the results for the Toxicity entry in data set [3] (500mg/kg/day ip Days 0 to 4) and in data set [3] (1000mg/kg/day ip Days 0 to 4) were “No discernible toxicity” and “no discernible signs of toxicity”, respectively. Moreover, the entries for the “Maximum weight loss compared to Day 0” value in data set [3] (setting [6]) and in data set [3] (setting [7]) were 4.0% and 7.0%, respectively.
“MKPLTGKVKEFNNI [EPL001, 14mer master test peptide …; ovine provenance]”: in data set [1], the “Cell proliferation by 3H-thymidine incorporation” value was “antiproliferative”. Besides, the “Effect on bone marrow cells in culture” value in data set [2] is given as “antiproliferative”. The Toxicity result in data set [3] (500mg/kg/day ip Days 0 to 4) is on record as “No discernible toxicity”. Also, the “Maximum weight loss compared to Day 0” value in data set [3] (setting [6]) was 5.0%. The “Maximum weight loss compared to Day 0” value in data set [3] (setting [7]) was determined as 3.5%. Besides, the Toxicity entry in data set [3] (1000mg/kg/day ip Days 0 to 4) was “no discernible signs of toxicity”. Moreover, the “Inhibition of IGF-1 stimulated growth in MCF-7 cell numbers” value in data set [4] is listed as “inhibits the proliferation”. In addition, in data set [5], the Bmal1 expression result was “↑↑”, the OCN expression result is reported as “↓”, the PPARγ expression entry is recorded as “↓” and the Per2 expression entry is recorded as “↓”. Further, the Sox9 expression entry in data set [5] is listed as “↓”.
